From patent US20230381193A1, “METHODS FOR THE TREATMENT OF CHILDHOOD-ONSET FLUENCY DISORDER” (Noema Pharma AG, priority 2021, published 2023)
Values after ≈ are worked out from the molar mass of the structure shown. Where two headings read alike, the source gives them in different places. Blank lines part the entries; values can stand above or below the compound they belong to.

Experiments:
[1] = Preliminary forced degradation study (acidic, basic, oxidative, photolytic stress; excipient compatibility); assay type: physicochemical
Description: Stability: Preliminary forced degradation study of the crystalline form of the free base of the compound of Formula I in acidic, basic, oxidative, and photolytic stress conditions was conducted to investigate the viability of the crystalline form in various stress conditions. Since the solubility of the compound of Formula I was low in the standard solvent ethanol, ethanol was replaced by N-methyl-2-pyrrolidone (NMP).
The crystalline form of the free base of the compound of Formula I was stable for up to 8 days in solid state at 80° C. and in solution at pH 3 to pH 7 at RT. […] The crystalline form was stable after exposure to light in solid state.

[2] = Preliminary solid state stability (UPLC analysis); assay type: physicochemical
Description: A defined amount of the crystalline form of the free base of the compound of Formula I (0.2-0.8 mg) was weighed into a 1.8 mL HPLC vial and stored open (75% RH) or closed (ambient) at the temperature and the time indicated. After incubation, compound was dissolved in 1-1.5 mL NMP to a final concentration of 0.2-0.5 mg/mL and submitted to UPLC analysis (254 nm).

[3] = Thermodynamic stability of crystalline form; assay type: physicochemical; settings: at least between 20° C. and 60° C.
[4] = Solubility of the crystalline form; assay type: physicochemical; settings: for solubility: thermodynamic from solid
Description: Solubility in simulated gastric fluid (SGF), fasted state simulated intestinal fluid (FaSSIF), and fed state simulated intestinal fluid (FeSSIF) was 0.019 mg/ml, 0.006 mg/mL, and 0.022 mg/mL, respectively. Solubility increased 50-100-fold in the presence of surfactants (e.g., Tween-80, sodium dodecyl sulfate, dioctyl sulfosuccinate, or Pluronic F68) and cyclodextrins; however it was still rather low.

[5] = Stability in suspension vehicle and parenteral formulation; assay type: physicochemical; settings: 0.5% HPC/1% Tween 80, up to 5 weeks at RT
Description: For parenteral administration, a 30% Kleptose formulation (1.5 mg/ml, physiologic osmolality, pH 6.2), with a stability of at least 4 weeks at 40° C. was developed.

SD rats [6] = experiment: Oral glucose tolerance test, first study (acute treatment); settings: 3 and 10 mg/kg
Description: The study was conducted on 10-week male SD rats fed with chow diet. The glucose challenge was performed 1 hour post last treatment. The glucose load was done per os per gavage (2 g/kg BW), and the formulation was made in saline. The blood glucose and plasma insulin were measured at 0 (before challenge), +15, +30, +60 and +120 minutes. Blood was sampled in EDTA coated tubes, and the blood samples were kept on ice until centrifuged at 4° C. ELISA for Insulin (Mercodia, Uppsala Sweden) and Fluorometric for measuring glucose (AccuCheck System) were used for the analysis. Data Analysis was done using the software JMP for Windows (Version 5.01, SAS institute Inc., SAS Campus Drive, Cary, NC 27513). Analysis of Variance ANOVA (alpha 0.05 and 0.01) followed by Dunnett's test (comparison vs. Control).

SD rats [7] = experiment: Oral glucose tolerance test, third study (sub-chronic, 8 days, alone or in combination); assay type: in vivo, rat
Description: The third study evaluated sub-chronic (8 days) effects of the compound of Formula I alone or in combination with Olanzapine. […] The insulin was measured at time 0 only.

SD rats [8] = experiment: Oral glucose tolerance test, second study (acute treatment); assay type: in vivo, rat; settings: 10 mg/kg; for Glucose tolerance (oral glucose tolerance test): glucose 2 g/kg per os 1 hour post treatment
Description: The second study assessed the impact of acute treatment with the compound of Formula I. The study was conducted on 9-week male SD rats, which were fed with chow diet.

[9] = tested on: adult male patients with COFD; experiment: Study A: open-label Phase IIa 6-week study of safety and efficacy in COFD; assay type: in vivo, human; settings: 5 to 15 mg, once daily, oral; study design criterion
Description: Provided below is an open-label, Phase IIa, multi-center, 6-week prospective study to evaluate the safety and efficacy of the compound of Formula I at a daily dose range of 5 mg to 15 mg in adult male patients with COFD.

Excipient compatibility (CompaS assay) [1]: compatible with almost all excipients | Stability towards oxidation ([1]; 1 day): stable | Stability towards daylight ([1]; in solution): stable | Stability in the Suntest ([1]; in solution, time dependent): moderately stable to unstable | Stability in solution ([1]; pH 3 to pH 7 at RT): stable | Stability in solution at higher or lower pH ([1]; pH above 7 or below 3): degradation was observed | Stability towards oxidation ([1]; prolonged exposure): some sensitivity | Stability after exposure to light ([1]; solid state): stable | Stability in solid state ([1]; up to 8 days, 80° C.): stable | UPLC analysis (Area % main peak) ([2]; 4 w 60° C.): 100 Area % | UPLC analysis (Area % main peak) ([2]; 4 w, 4° C.): 100 Area % | UPLC analysis (Area % main peak) ([2]; 4 w, 40° C.): 100 Area % | UPLC analysis (Area % main peak) ([2]; 4 w, 40° C., 75% RH): 100 Area % | UPLC analysis (Area % main peak) ([2]; 4 w, RT): 100 Area % | Time stable in solid state ([2]; 40-60° C.): at least 4 weeks | UPLC analysis (Area % main peak) ([2]; 1 h, 80° C.): 100 Area % | UPLC analysis (Area % main peak) ([2]; 1 d, 80° C.): 100 Area % | UPLC analysis (Area % main peak) ([2]; 8 d, 80° C.): 100 Area % | Degradation products ([2]; solid state, various temperatures): < 0.5% | Thermodynamic stability [3]: thermodynamically stable | solubility ([4]; aqueous solutions, 22 °C, aqueous buffer, pH>3, read-out: Solubility in aqueous solutions): < 4 µg/mL | solubility ([4]; fasted state simulated intestinal fluid (FaSSIF), 22 °C, fassif, read-out: Solubility in fasted state simulated intestinal fluid (FaSSIF)): 6 µg/mL (≈ 13.9 µM) | solubility ([4]; fed state simulated intestinal fluid (FeSSIF), 22 °C, fessif, read-out: Solubility in fed state simulated intestinal fluid (FeSSIF)): 22 µg/mL (≈ 51 µM) | Solubility increase ([4]; in the presence of surfactants (e.g., Tween-80, sodium dodecyl sulfate, dioctyl sulfosuccinate, Pluronic F68) and cyclodextrins): 50-100 fold | solubility ([4]; organic solvents, organic solvent or mixture, ambient temperature (22° C.), read-out: Solubility in most of the tested organic solvents): < 50000 µg/mL | solubility ([4]; simulated gastric fluid (SGF), 22 °C, simulated gastric fluid, read-out: Solubility in simulated gastric fluid (SGF)): 19 µg/mL (≈ 44 µM) | Stability in suspension vehicle [5]: stable
SMILES: Cn1ncc(C(=O)N2CCOCC2)c1C(=O)Nc1ccn2nc(-c3ccccc3)nc2c1 [1-methyl-4-(morpholine-4-carbonyl)-N-(2-phenyl[1,2,4]triazolo[1,5-a]pyridin-7-yl)-1H-pyrazole-5-carboxamide]
Particle growth and hydrate formation in suspension vehicle [5]: only minor particle growth and no hydrate formation

SMILES: Cc1cc2c(s1)Nc1ccccc1N=C2N1CCN(C)CC1 [Olanzapine, 2-Methyl-4-(4-methyl-1-piperazinyl)-10H-thieno[2,3-b][1,5]benzodiazepine]
Glucose tolerance (oral glucose tolerance test) (SD rats [6]; glucose 2 g/kg per os 1 hour post treatment): dose-dependent glucose intolerance | Fasting blood glucose (SD rats [6]; male SD rats): dose-dependent increase | Fasting insulin (SD rats [6]; male SD rats): dose-dependent increase | Glucose tolerance (oral glucose tolerance test) (SD rats [7]; acute treatment, 10 mg/kg, glucose 2 g/kg per os): glucose intolerance | Fasting blood glucose (SD rats [7]; acute treatment, 10 mg/kg, male SD rats): increase | Glucose tolerance (oral glucose tolerance test) (SD rats [8]): glucose intolerance | Fasting blood glucose (SD rats [8]; male SD rats): increase

SMILES: Cn1ncc(C(=O)N2CCOCC2)c1C(=O)Nc1ccn2nc(-c3ccccc3)nc2c1 [compound of Formula I, 1-methyl-4-(morpholine-4-carbonyl)-N-(2-phenyl[1,2,4]triazolo[1,5-a]pyridin-7-yl)-1H-pyrazole-5-carboxamide]
Key secondary: Subject-rated Self Assessment of Stuttering [9]: Key secondary: Superior efficacy on the Subject-rated Self | Safety: effect on blood glucose and lipids [9]: No or minimal effect on blood glucose and lipids | Safety: patients with significant weight gain (greater than 7% versus baseline) [9]: Less than 5% of patients with significant weight gain (greater | Secondary: percent of patients with stuttering freedom [9]: Secondary: Superior percent of patients with stuttering | Fasting blood glucose (SD rats [7]; repeated treatment, 8 days, 0.3 mg/kg): no change | Glucose tolerance (oral glucose tolerance test) (SD rats [7]; repeated treatment, 8 days, 0.3 mg/kg, alone): slight glucose tolerance improvement | Glucose tolerance (oral glucose tolerance test) (SD rats [8]): did not induce any change
